Results published in patent US20050250677A1, “Glycopeptide antibiotic derivatives” (priority 2002, published 2005).
Like-named read-outs stand apart in the source and are kept apart here.

What was measured:
[1] = tested on: FCK cells; conditions: read-out: CC50 FCK; FCK cells
[2] = tested on: FCV; assay: Feline corona virus assay in Feline Crandel kidney cells (MTS); assay type: cell-based; conditions: for EC50: FCV in FCK cells, read-out: EC50 FCV
Protocol: Feline Crandel kidney cells were seeded in 96-well microtiter plates at 24,000 cells/well. Then, 24 hrs later, an appropriate inoculum of FCV is added together with 5-fold dilutions of the test compounds. After 4 days, a MTS/PMS solution was added to each well. Following a 90 min incubation period at 37° C., the optical density of the wells was read at 498 nm in a microplate reader.

[3] = tested on: SARS virus (strain Frankfurt-1); assay: microbe, parasite or virus in culture; assay type: cell-based, human corona (SARS) virus; conditions: SARS virus in Vero cells; read-out: EC50 SARS virus
[4] = tested on: Vero cells; conditions: read-out: CC50 Vero
[5] = tested on: HIV-2(ROD); assay: Inhibition of HIV-2 (ROD)-induced cytopathicity (giant cell formation) in CEM cells; assay type: cell-based; conditions: read-out: EC50 HIV-2 (concentration required to inhibit HIV-induced giant cell formation by 50%); HIV-2, CEM cell cultures
Protocol: (§1) A variety of glycopeptide antibiotic derivatives of vancomycin, eremomycin and teicoplanin including their aglycon derivatives were evaluated for their inhibitory activity against HIV-1 (IIIB) and HIV-2(ROD) in CEM cell cultures.

[6] = tested on: murine leukemia L1210; assay: Cytostatic activity assay, L1210 cells; assay type: cell-based; conditions: read-out: IC50 L1210 (compound concentration required to inhibit tumor cell proliferation by 50%)
[7] = tested on: human lymphocyte Molt4/clone 8; assay: Cytostatic activity assay, Molt4/clone 8 cells; assay type: cell-based; conditions: read-out: IC50 Molt4/C8 (compound concentration required to inhibit tumor cell proliferation by 50%)
[8] = tested on: human lymphocyte CEM; assay: Cytostatic activity assay, CEM cells; assay type: cell-based; conditions: read-out: IC50 CEM (compound concentration required to inhibit tumor cell proliferation by 50%)
[9] = tested on: HIV-1 (IIIB); assay: Inhibition of HIV-1 (IIIB)-induced cytopathicity (giant cell formation) in CEM cells; assay type: cell-based; conditions: read-out: EC50 HIV-1 (concentration required to inhibit HIV-induced giant cell formation by 50%); HIV-1, CEM cell cultures
Protocol: as §1

[10] = tested on: VZV (wild-type strains); assay: Anti-VZV assay (wild-type strains): virus-induced cytopathicity in HEL cell cultures; assay type: cell-based, varicella-zoster virus; conditions: HEL cell cultures
[11] = tested on: HEL cells; conditions: read-out: CC50 (HEL), HEL cells
[12] = tested on: HEL cells
[13] = tested on: CMV; assay: Anti-CMV assay: virus-induced cytopathicity in HEL cell cultures
[14] = VZV strain OKA, read-out: EC50 VZV (OKA)
[15] = VZV strain YS, read-out: EC50 VZV (YS)
[16] = read-out: EC50 CMV AD-169, CMV strain AD-169, HEL cell cultures
[17] = read-out: EC50 CMV Davis, CMV strain Davis, HEL cell cultures

Compound | CC50 [1] [µM] | activity against FCV [2] | EC50 [2] [µM] | EC50 [3] [µM] | CC50 [4] [µM] | EC50 [5] [µM] | IC50 [6] [µM] | IC50 [7] [µM] | IC50 [8] [µM] | EC50 [9] [µM] | EC50 [10, 14] [µM] | EC50 [10, 15] [µM] | CC50 ([11]; anti-CMV table) [µM] | CC50 ([11]; anti-VZV table) [µM] | MTC (HEL) ([12]; anti-CMV table) | MTC (HEL) ([12]; anti-VZV table) | EC50 [13, 16] [µM] | EC50 [13, 17] [µM] | anti-CMV activity [13]
CCCCCCCCCCCCNCc1c(O)cc2c(c1O)-c1cc(ccc1O)C1NC(=O)C3NC(=O)C(CC(N)=O)NC(=O)C(NC(=O)C(CC(C)C)NC)C(O)c4ccc(c(Cl)c4)Oc4cc3cc(c4OC3OC(CO)C(O)C(O)C3OC3CC(C)(N)C(O)C(C)O3)Oc3ccc(cc3)C(OC3CC(C)(N)C(O)C(C)O3)C(NC1=O)C(=O)NC2C(=O)O (stereo not shown) [Compound 64] | 75 | active | 8.2 | 31 | > 100 |  |  |  |  |  |  |  |  |  |  |  |  |  | 
CNC(CC(C)C)C(=O)NC1C(=O)NC(CC(N)=O)C(=O)NC2C(=O)NC3C(=O)NC(C(=O)NC(C(=O)N(C(=O)NC4CCCCC4)C4CCCCC4)c4cc(O)cc(O)c4-c4cc3ccc4O)C(O)c3ccc(cc3)Oc3cc2cc(c3O)Oc2ccc(cc2Cl)C1O (stereo not shown) [Compound 102] | > 100 |  |  | 68 | > 100 | 32.5 ± 3.5 | > 250 | > 250 | > 250 | 7.5 ± 4.8 |  |  |  |  |  |  |  |  | 
NC1C(=O)NC2Cc3ccc(c(Cl)c3)Oc3cc4cc(c3O)Oc3ccc(cc3Cl)C(O)C3NC(=O)C(NC(=O)C4NC(=O)C(NC2=O)c2cc(O)cc(c2)Oc2cc1ccc2O)c1ccc(O)c(c1)-c1c(O)cc(O)cc1C(C(=O)O)NC3=O (stereo not shown) [Compound 159] | 85 |  | 9.9 | 28 | > 100 |  |  |  |  |  |  |  |  |  |  |  |  |  | 
CCCCCCCCCC[N+](C)(C)CCCNCc1c(O)cc2c(c1O)-c1cc(ccc1O)C1NC(=O)C3NC(=O)C4NC(=O)C(Cc5ccc(c(Cl)c5)Oc5cc3cc(c5O)Oc3ccc(cc3Cl)C(O)C(NC1=O)C(=O)NC2C(=O)NCCC[N+](C)(C)CCCCCCCCCC)NC(=O)C(N)c1ccc(O)c(c1)Oc1cc(O)cc4c1 (stereo not shown) [Compound 37] |  |  |  |  |  | 4.3 ± 0.58 | 12 ± 2 | 19 ± 12 | 9.4 ± 1.9 | 1.6 ± 0.58 | 1.5 | > 2 | 43 | 43 | ≧2-20 μM | ≧2-20 μM | > 5 | 3.5 | 
CCCCCCCCCC[N+](C)(C)CCCNC(=O)C1NC(=O)C2NC(=O)C(NC(=O)C3NC(=O)C4NC(=O)C(Cc5ccc(c(Cl)c5)Oc5cc3cc(c5O)Oc3ccc(cc3Cl)C2O)NC(=O)C(N)c2ccc(O)c(c2)Oc2cc(O)cc4c2)c2ccc(O)c(c2)-c2c(O)cc(O)cc21 (stereo not shown) [Compound 27] |  |  |  |  |  | 2.3 ± 0.21 | 9.1 ± 0.9 | 28 ± 0.4 | 18 ± 3 | 1.5 ± 0.42 | 1 | 0.8 | > 200 | > 200 | ≧2-50 μM | ≧2-50 μM | ≥ 5 | 3.5 | anti-CMV activity
CCCCCCCCCNCc1c(O)cc2c(c1O)-c1cc(ccc1O)C1NC(=O)C3NC(=O)C4NC(=O)C(Cc5ccc(c(Cl)c5)Oc5cc3cc(c5O)Oc3ccc(cc3Cl)C(O)C(NC1=O)C(=O)NC2C(=O)NCCCN(C)C)NC(=O)C(N)c1ccc(O)c(c1)Oc1cc(O)cc4c1 (stereo not shown) [Compound 21] |  |  |  |  |  | 6.5 ± 0.7 | 43 ± 6 | 136 ± 33 | 179 ± 1 | 2.2 | 1.3 | 2 | 107 | 107 | 5 to 50 µM | 5 to 50 µM | 8 |  | anti-CMV activity
NC1C(=O)NC2Cc3ccc(c(Cl)c3)Oc3cc4cc(c3O)Oc3ccc(cc3Cl)C(O)C3NC(=O)C(NC(=O)C4NC(=O)C(NC2=O)c2cc(O)cc(c2)Oc2cc1ccc2O)c1ccc(O)c(c1)-c1c(O)cc(O)cc1C(C(=O)N1CCN(Cc2ccc4ccccc4c2)CC1)NC3=O (stereo not shown) [Compound 25] |  |  |  |  |  | 5 | 175 ± 44 | 47 ± 4 | 113 ± 28 | 2.1 ± 1.3 | 1 | 0.6 | > 50 | > 50 | 20 to 200 µM | 20 to 200 µM | 30 |  | anti-CMV activity
